pIC50: −log10 of the molar value. Like-named read-outs stand apart in the source and are kept apart here.
Legend:
HCMV [1] = experiment: HCMV plaque (focus) reduction assay in HFF cells; format: cell-based, HCMV (Towne strain); details: HCMV plaque assay, HFF cells, averages from two or more experiments, read-out: 50% Inhibitory Concentration, Antiviral Activity (plaque)
Method: (§1) A plaque purified isolate, Po, of the Towne strain of HCMV was used in all experiments and was a gift of Dr. Mark Stinski, University of Iowa. The KOS strain of HSV-1 was used and was provided by Dr. Sandra K. Weller, University of Connecticut. Stock preparations of HCMV and HSV-1 were prepared and titered as known to those of skill and the art and described in Turk, S. R. et al. (1987) Antimicrob. Agents Chemother. Vol. 31:544-550 and Shipman, C., Jr., et al. (1990) J. Virol. Methods Vol. 28:101-106, each incorporated herein by reference.
(§2) HCMV plaque reduction experiments were performed with monolayer cultures of HFF cells by a procedure similar to that referenced above for titration of the viruses and described in Devivar, R. V. et al. (1994) J. Med. Chem. Vol. 37:2942-2949. Activity of compounds against HSV-1 was evaluated using an ELISA assay.
The effect of compounds of the replication of HCMV was measured using a plaque (focus) reduction assay. For the former, HFF cells in 24-well culture dishes were infected with approximately 50 p.f.u. of HCMV per well using the procedures detailed above. Compounds dissolved in growth medium were added in four to six selected concentrations to duplicate wells following virus adsorption. Following incubation at 37° C. for 7 to 10 days, cell sheets were fixed, stained and microscopic plaques were enumerated as described above. Drug effects were calculated as a percentage of reduction in number of plaques in the presence of each drug concentration compared to the number observed in the absence of drug. DHPG (ganciclovir) was used as a positive control in all experiments.
(§3) Dose-response relationships can be used to compare drug effects. These are constructed by linearly regressing the percent inhibition of parameters derived in the preceding sections against log drug concentrations. The 50 inhibitory (I50) concentrations were calculated from the regression lines using the methods described by Goldstein. See Goldstein, A., Biostatistics: An Introductory Text, MacMillan, New York, pp. 156-161 (1964), incorporated herein by reference.
(§4) (2) A plaque assay was used to quantitate anti HCMV activity, an ELISA assay was used to quantitate activity against HSV-1. DHPG (ganciclovir) was used as a positive control for the HCMV assay.

HSV-1 = HSV-1 ELISA assay; format: cell-based, HSV-1 (KOS strain); details: read-out: 50% Inhibitory Concentration, Antiviral Activity (ELISA)
Method: as §1, §2
ELISA techniques according to standard procedures were also used to determine activity against HSV-1. Drug effects were calculated as a percentage of the reduction in virus titers in the presence of each drug concentration compared to the titer obtained in the absence of drug. Ganciclovir was used as a positive control in all experiments.
as §3, §4

HFF cells = experiment: Visual cytotoxicity in stationary HFF cells at time of plaque enumeration; format: cell-based, human; details: visual cytotoxicity on HFF cells at time of HCMV plaque enumeration; read-out: 50% Inhibitory Concentration, Cytotoxicity (HFF)
Method: (§5) KB cells (available from the American Type Culture Collection (ATCC) 12301 Parklawn Drive, […], Md. 20852 (ATCC CCL 17)), an established human cell line derived from an epidermal oral carcinoma, were grown in minimal essential medium (MEM) (Sigma) with Hanks salts (MEM(H)) supplemented with 5% fetal calf serum. Human foreskin fibroblasts (HFF cells) (provided by the University of Michigan Hospital) and African green monkey kidney cells (BSC-1) (ATTC CCL 26) cells were grown in MEM with Earl salts (MEM(E)) supplemented with 10% fetal bovine serum. Cells were passaged according to conventional procedures and as described in Shipman, C., Jr. et al. (1976) Antimicrob. Agents Chemother. Vol. 9:120 and incorporated herein by reference. Briefly, cells were passaged at 1:2 to 1:10 dilutions according to conventional procedures by using 0.05% trypsin plus 0.02% EDTA in a HEPES buffered salt solution. HFF cells were passaged only at 1:2 dilutions.
(§6) Two different methods were used to evaluate cytotoxicity of the compounds. First, cytotoxicity produced in stationary HFF cells was determined by microscopical examination of cells not affected by the virus used in the plaque assay. Second the effect of compounds on KB cells during two population doubling times was determined by crystal violet staining and spectrophotometric quantitation of dye eluted from stained cells. This method has been utilized for the analysis of ganciclovir and zidovudine (See Prichard, M. N. et al. Antiviral Res. (1991) Vol. 35:1060-1065).
(§7) (3) Visual cytotoxicity was scored on HFF cells at the time of HCMV plaque enumeration. Inhibition of KB cell growth was determined as described in the experimental. 3L was used as a positive control for the KB cytotoxicity assay.

KB cells = experiment: Inhibition of KB cell growth (crystal violet staining); format: cell-based, human; details: inhibition of KB cell growth; read-out: 50% Inhibitory Concentration, Cytotoxicity (KB)
Method: as §5, §6, §7

HCMV [2] = details: background statement; times more active than TCRB; cited from earlier work
[3] = Visual cytotoxicity in stationary HFF cells at time of plaque enumeration; format: cell-based, human; details: human, stationary human foreskin fibroblasts (HFF cells); visual cytotoxicity on HFF cells at time of HCMV plaque enumeration; read-out: 50% Inhibitory Concentration, Cytotoxicity (HFF)
Method: as §5, §6, §7

[4] = Inhibition of KB cell growth (crystal violet staining); format: cell-based, human; details: human, KB cells (human epidermal oral carcinoma line); inhibition of KB cell growth; read-out: 50% Inhibitory Concentration, Cytotoxicity (KB)
Method: as §5, §6, §7

L1210 cells = experiment: Antiproliferative activity: growth of L1210 cells; format: cell-based, mouse; details: Mus musculus; concentration required to decrease final growth rate of L1210 cells to half of control rate; read-out: 50% Inhibitory Concentration, Antiproliferative Activity
Method: Antiproliferative activity was evaluated by measuring the effect of the compounds on the growth of L1210 cells, a mouse leukemia cell line which is generally available and can be obtained from Cancer Chemotherapy Center, Japanese Foundation for Cancer Research. Antiproliferative activity was measured using conventional procedures and as described in Wotring, L. L. and Townsend, L. B., (1979) Cancer Res. Vol. 39:3018-3023 and Cory, A. H. et al. (1991) Cancer Comm. Vol. 3:207-212, each incorporated herein by reference.
(8) The concentration required to decrease the final growth rate of L1210 cells to half of the control rate. All values are averages from two or more experiments.

[5] = Human alphaherpesvirus 1, averages from two or more experiments

pIC50 (HCMV [1]; Human betaherpesvirus 5, HFF)	pIC50 (HSV-1; [5])	pIC50 (L1210 cells)	melting point [°C]	Compound	pIC50 (HCMV [1])	pIC50 (HSV-1; averages from two or more experiments)	pIC50 (HFF cells)	pIC50 (KB cells)	activity relative to TCRB (HCMV [2])	pIC50 [3]	IC50 at 2 population doubling times [4] [µM]
				C[C@H]1O[C@@H](n2c(Cl)nc3cc(Cl)c(Cl)cc32)[C@H](O)[C@@H]1O [Compound 2, 2,5,6-trichloro-1-(5′-deoxy-β-D-ribofuranosyl)benzimidazole, reference compound]	6.44	< 4.00	4.11	3.82	about 10 times		
5.52	< 4.00	4.22	104 to 105	COC[C@H]1O[C@@H](n2c(Cl)nc3cc(Cl)c(Cl)cc32)[C@H](O)[C@@H]1O [Compound 8a, 2,5,6-trichloro-1-(5′-O-methyl-β-D-ribofuranosyl)benzimidazole]						4.59	90
5.34	< 4.00	4.23	88 to 90	CCOC[C@H]1O[C@@H](n2c(Cl)nc3cc(Cl)c(Cl)cc32)[C@H](O)[C@@H]1O [Compound 8b, 2,5,6-trichloro-1-(5′-O-ethyl-β-D-ribofuranosyl)benzimidazole]						4.59	80
4.85	< 4.00	< 4.00	70 to 72	CCCCOC[C@H]1O[C@@H](n2c(Cl)nc3cc(Cl)c(Cl)cc32)[C@H](O)[C@@H]1O [Compound 8c, 2,5,6-trichloro-1-(5′-O-butyl-β-D-ribofuranosyl)benzimidazole]						4.49	60
